Measured values: ChEMBL document CHEMBL6178019, “Discovery of CYP1A1 Inhibitors for Host-Directed Therapy against Sepsis” (J Med Chem, 2025)

Target: T1, CYP1A1 (Mus musculus, UniProt P00184)
T1 sequence (P00184 whole entry): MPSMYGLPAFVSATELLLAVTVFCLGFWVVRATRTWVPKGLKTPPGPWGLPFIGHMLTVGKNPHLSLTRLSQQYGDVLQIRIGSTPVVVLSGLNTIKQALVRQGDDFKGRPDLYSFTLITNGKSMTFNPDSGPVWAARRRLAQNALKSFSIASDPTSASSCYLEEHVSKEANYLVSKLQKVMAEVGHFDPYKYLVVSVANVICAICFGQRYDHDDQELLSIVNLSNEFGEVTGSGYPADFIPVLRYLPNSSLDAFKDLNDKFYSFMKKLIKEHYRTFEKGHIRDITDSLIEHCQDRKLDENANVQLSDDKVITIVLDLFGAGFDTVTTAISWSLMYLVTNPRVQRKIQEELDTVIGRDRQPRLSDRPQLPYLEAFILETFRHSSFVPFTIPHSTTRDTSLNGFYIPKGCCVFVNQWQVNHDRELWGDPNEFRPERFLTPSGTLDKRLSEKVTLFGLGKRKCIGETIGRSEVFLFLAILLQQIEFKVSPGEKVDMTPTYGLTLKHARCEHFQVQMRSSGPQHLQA
Test: Inhibition of CYP1A1 in mouse RAW264.7 cells at 500 nM incubated for 12 hrs by EROD assay relative to control
Type: cell-based

## C#Cc1ccccc1/C=C/C(=O)c1ccc2c(c1)n(C)c(=O)n2C
  inhibition at 12 h, 0.5 µM: < 10%
